Assay results reported in patent US6087119A, “Method for determining the catalytic activity of factor IXa” (Roche Diagnostics GmbH, priority 1996, dated 2000).
Like-named read-outs stand apart in the source and are kept apart here.

What was measured:
[1] = target: native FIXa (human) (Homo sapiens, UniProt P00740); conditions: MeSO2-D-HHT-Gly-Arg-pNA
Description: Influence of the pH on the Activity of rFIXa and Native FIXa in the Presence of Ethylene Glycol
1.02 mmol/l MeSO2 -D-HHT-Gly-Arg-pNA, MOC-D-Nle-Gly-Arg-pNA or MeSO2 -D-CHG-Gly-Arg-pNA
0.14 μmol/l native FIXa (human)

[2] = target: rFIXa (human) (Homo sapiens, UniProt P00740); experiment: Influence of the pH on the activity of rFIXa in the presence of ethylene glycol; type: biochemical; design: coding for the FIX protease domain from amino acid position 181 to 415; Met (ATG start codon) (N); made in house; conditions: 25% ethylene glycol; for increase of cleavage rates: pH 7.0-10.0; for cleavage rate mA/min: rFIXa (human)
Chain of rFIXa (human) (P00740 227-461): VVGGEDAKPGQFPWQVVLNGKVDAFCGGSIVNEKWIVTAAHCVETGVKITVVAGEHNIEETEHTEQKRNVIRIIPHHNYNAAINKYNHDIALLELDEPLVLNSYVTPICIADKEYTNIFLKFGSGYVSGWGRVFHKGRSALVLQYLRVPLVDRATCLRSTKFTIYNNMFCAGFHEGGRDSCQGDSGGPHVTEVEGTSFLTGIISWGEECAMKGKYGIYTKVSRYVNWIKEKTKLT
Chain of rFIXa (human) (P00740 131-226): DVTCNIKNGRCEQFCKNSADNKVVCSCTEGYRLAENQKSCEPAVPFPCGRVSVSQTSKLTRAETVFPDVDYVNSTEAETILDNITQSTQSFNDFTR
Description: 0.28 μmol/l rFIXa (human)

Chain of native FIXa (human) (P00740 227-461 limits assumed): as the sequence (P00740 227-461) above
Chain of native FIXa (human) (P00740 47-191 partner limits assumed): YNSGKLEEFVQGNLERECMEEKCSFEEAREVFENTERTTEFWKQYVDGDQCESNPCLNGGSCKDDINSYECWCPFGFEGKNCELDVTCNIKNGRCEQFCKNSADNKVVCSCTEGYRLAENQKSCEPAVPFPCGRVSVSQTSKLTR

OCCO [Ethylene glycol]
cleavage rate mA/min ([1]; pH 7.0, 25% ethylene glycol): 23.7 mA/min | cleavage rate mA/min ([1]; pH 7.5, 25% ethylene glycol): 63.0 mA/min | cleavage rate mA/min ([1]; pH 8.0, 25% ethylene glycol): 101.0 mA/min | cleavage rate mA/min ([1]; pH 8.25, 25% ethylene glycol): 106.7 mA/min | cleavage rate mA/min ([1]; pH 8.5, 25% ethylene glycol): 115.4 mA/min | cleavage rate mA/min ([1]; pH 8.75, 25% ethylene glycol): 110.9 mA/min | cleavage rate mA/min ([1]; pH 9.0, 25% ethylene glycol): 105.6 mA/min | cleavage rate mA/min ([1]; pH 9.5, 25% ethylene glycol): 100.6 mA/min | cleavage rate mA/min ([1]; pH 10.0, 25% ethylene glycol): 77.2 mA/min | increase of cleavage rates ([2]; substrate MOC-D-Nle-Gly-Arg-pNA): 14 fold | increase of cleavage rates ([2]; substrate MeSO2-D-CHG-Gly-Arg-pNA): 20 fold | increase of cleavage rates ([2]; substrate MeSO2-D-HHT-Gly-Arg-pNA): 10 fold | cleavage rate mA/min ([2]; pH 7.0, MOC-D-Nle-Gly-Arg-pNA): 31.5 mA/min | cleavage rate mA/min ([2]; pH 7.0, MeSO2-D-CHG-Gly-Arg-pNA): 154.7 mA/min | cleavage rate mA/min ([2]; pH 7.0, MeSO2-D-HHT-Gly-Arg-pNA): 56.5 mA/min | cleavage rate mA/min ([2]; pH 7.5, MOC-D-Nle-Gly-Arg-pNA): 70.1 mA/min | cleavage rate mA/min ([2]; pH 7.5, MeSO2-D-CHG-Gly-Arg-pNA): 289.8 mA/min | cleavage rate mA/min ([2]; pH 7.5, MeSO2-D-HHT-Gly-Arg-pNA): 124.5 mA/min | cleavage rate mA/min ([2]; pH 8.0, MOC-D-Nle-Gly-Arg-pNA): 99.7 mA/min | cleavage rate mA/min ([2]; pH 8.0, MeSO2-D-CHG-Gly-Arg-pNA): 372.4 mA/min | cleavage rate mA/min ([2]; pH 8.0, MeSO2-D-HHT-Gly-Arg-pNA): 173.6 mA/min | cleavage rate mA/min ([2]; pH 8.25, MOC-D-Nle-Gly-Arg-pNA): 102.7 mA/min | cleavage rate mA/min ([2]; pH 8.25, MeSO2-D-CHG-Gly-Arg-pNA): 382.2 mA/min | cleavage rate mA/min ([2]; pH 8.25, MeSO2-D-HHT-Gly-Arg-pNA): 176.0 mA/min | cleavage rate mA/min ([2]; pH 8.5, MOC-D-Nle-Gly-Arg-pNA): 104.3 mA/min | cleavage rate mA/min ([2]; pH 8.5, MeSO2-D-CHG-Gly-Arg-pNA): 389.8 mA/min | cleavage rate mA/min ([2]; pH 8.5, MeSO2-D-HHT-Gly-Arg-pNA): 182.1 mA/min | cleavage rate mA/min ([2]; pH 8.75, MOC-D-Nle-Gly-Arg-pNA): 101.6 mA/min | cleavage rate mA/min ([2]; pH 8.75, MeSO2-D-CHG-Gly-Arg-pNA): 395.6 mA/min | cleavage rate mA/min ([2]; pH 8.75, MeSO2-D-HHT-Gly-Arg-pNA): 170.7 mA/min | cleavage rate mA/min ([2]; pH 9.0, MOC-D-Nle-Gly-Arg-pNA): 97.3 mA/min | cleavage rate mA/min ([2]; pH 9.0, MeSO2-D-CHG-Gly-Arg-pNA): 373.3 mA/min | cleavage rate mA/min ([2]; pH 9.0, MeSO2-D-HHT-Gly-Arg-pNA): 164.1 mA/min | cleavage rate mA/min ([2]; pH 9.5, MOC-D-Nle-Gly-Arg-pNA): 70.7 mA/min | cleavage rate mA/min ([2]; pH 9.5, MeSO2-D-CHG-Gly-Arg-pNA): 255.6 mA/min | cleavage rate mA/min ([2]; pH 9.5, MeSO2-D-HHT-Gly-Arg-pNA): 112.0 mA/min | cleavage rate mA/min ([2]; pH 10.0, MOC-D-Nle-Gly-Arg-pNA): 68.3 mA/min | cleavage rate mA/min ([2]; pH 10.0, MeSO2-D-CHG-Gly-Arg-pNA): 244.5 mA/min | cleavage rate mA/min ([2]; pH 10.0, MeSO2-D-HHT-Gly-Arg-pNA): 110.1 mA/min
